Results on six compounds are retold here after publication PMC6347521 (Current protocols in toxicology, 2018).

For data set [1], the system named is Hep3B human hepatoma cell line. The data set is described as follows: cells. Type of data set: cell-based. Particulars: read-out: IC50 Calcein AM.
Data set [2] has as its system 2D. Particulars: read-out: IC50 2D (literature review), cited from earlier work.
The subject of data set [3] is Hep3B human hepatoma cell line. The data set is described as follows: cells. Type of data set: cell-based. The following applies: read-out: IC50 TMRM.
Data set [4] deals with Hep3B human hepatoma cell line. Description: cells. Type of data set: cell-based. The following applies: read-out: IC50 mBCl.
Data set [5] concerns Hep3B human hepatoma cell line. Description: cells. The class given is cell-based. Particulars: read-out: IC50 Hoechst.
For data set [6], the system named is rat. The following applies: ref not given; cited from earlier work.
The mark [7] stands for this setting: 2D cell culture, ref literature review.

Structures are written as SMILES. Where two headings read alike, the source gives them in different places.

For orientation: IC50 means the midpoint of a concentration-inhibition curve. Regarding `C=C(C)[C@H]1Cc2c(ccc3c2O[C@@H]2COc4cc(OC)c(OC)cc4[C@@H]2C3=O)O1` [Rotenone], the concentration for half-maximal inhibition (IC50) in data set [1] (Homo sapiens, Hep3B, 48 h) is 8 ± 6 µM; in data set [2] (setting [7]) it was 1.7 ± 1.2 µM; in data set [3] (Homo sapiens, Hep3B, 48 h) it was 0.6 ± 0.3 µM; in data set [4] (Homo sapiens, Hep3B, 48 h) it was 1.7 ± 0.7 µM; in data set [5] (Homo sapiens, Hep3B, 48 h) it was 3 µM. In addition, in data set [6], the “LD50 mg/kg (rat oral)” value is on record as 30 mg/kg.

On to `CC[C@H](C)C(=O)O[C@H]1C[C@@H](C)C=C2C=C[C@H](C)[C@H](CC[C@@H]3C[C@@H](O)CC(=O)O3)[C@H]21` [Lovastatin], for which the IC50 in data set [1] (Homo sapiens, Hep3B, 48 h) was 150 µM; in data set [2], 20 ± 3.7 µM; in data set [3] (Homo sapiens, Hep3B, 48 h), 152 ± 6.7 µM; in data set [4] (Homo sapiens, Hep3B, 48 h), 195 ± 5 µM; in data set [5] (Homo sapiens, Hep3B, 48 h), 188 ± 17.7 µM. For the same compound, the “LD50 mg/kg (rat oral)” value in data set [6] was 5000 mg/kg.

In the case of `CC(=O)Nc1ccc(O)cc1` [Acetaminophen], the IC50 is over 2100 µM in data set [1] (Homo sapiens, Hep3B, 48 h); 29800 µM in data set [2]; over 2100 µM in data set [3] (Homo sapiens, Hep3B, 48 h); over 2100 µM in data set [4] (Homo sapiens, Hep3B, 48 h); over 2100 µM in data set [5] (Homo sapiens, Hep3B, 48 h).

On to `CC/C(=C(\c1ccccc1)c1ccc(OCCN(C)C)cc1)c1ccccc1` [Tamoxifen], for which the “LD50 mg/kg (rat oral)” value in data set [6] is on record as 4100 mg/kg.

In the case of `CC1=CC(=O)c2ccccc2C1=O` [Menadione], the IC50 in data set [1] (Homo sapiens, Hep3B, 48 h) is 11 ± 3.8 µM; in data set [2] (setting [7]) it was 13.5 ± 3.6 µM; in data set [3] (Homo sapiens, Hep3B, 48 h) it was 11.5 ± 2.5 µM; in data set [4] (Homo sapiens, Hep3B, 48 h) it was 15 ± 2.3 µM; in data set [5] (Homo sapiens, Hep3B, 48 h), 20 ± 1 µM.

As to `O=C([O-])CC(O)(CC(=O)[O-])C(=O)[O-].[Na+].[Na+].[Na+]` [Sodium citrate], the IC50 in data set [1], in data set [2], in data set [3], in data set [4] and in data set [5] was over 1400 µM each time.
